Like-named read-outs stand apart in the source and are kept apart here.
How the values were obtained:
advanced solid tumors = assay: Efficacy: objective tumor response per RECIST 1.1; assay type: in vivo, human
Method: Efficacy of treatment was determined by measuring reported lesions at baseline and after every 2 cycles.

[1] = Plasma pharmacokinetics of bimiralisib, non-compartmental analysis (LC-MS); assay type: in vivo, human; conditions: for AUC(0-t) / Cmax / Tmax: human, plasma, oral; for Cmax: read-out: Cmax Mean (%CV); for Tmax: read-out: Tmax Median, (Range)
Method: Blood samples were collected to enable full PK profiling of bimiralisib. The PK samples were taken pre-dose and at 0.5, 1, 2, 4, 6, 8, and 24 h post-dosing in the three schedules, with additional timepoints depending on the schedule (48 h in the continuous schedule, 12, 16, and 48 h in intermittent schedule A and 12, 16, and 72 h in intermittent schedule B). PK sampling was repeated on cycle 1 Day 8 (continuous schedule: pre-dose and 1 h post-dose; intermittent schedules A and B: pre-dose and 0.5, 1, 2, 4, 6, 8, and 24 h post-dose), on cycle 1 Day 15 (continuous schedule: pre-dose and 0.5, 1, 2, 4, 6 and 8 h post-dose; intermittent schedules A and B: pre-dose and 4 h post-dose), and on cycle 2 Day 1 (continuous dosing: pre-dose and 1 h post-dose). Samples were sent to a central laboratory for analysis using liquid-chromatography mass spectrometry. The pharmacokinetics of bimiralisib were determined by non-compartmental analysis. Area under the concentration vs. time curve (AUC) was calculated using the linear up log down trapezoidal method. Accumulation was calculated as the ratio of cycle 1 on Day 15 AUC0–8h versus cycle 1 on Day -3 AUC0–8h.

[2] = PR patient, head and neck squamous cancer, NOTCH1T1997M, intermittent schedule A 200 mg
[3] = 80 mg, Continuous Dosing, 80 mg, Day 15, 7 patients
[4] = 80 mg, Continuous Dosing, 80 mg, Day -3, 11 patients
[5] = 80 mg, Intermittent Dose Schedule A, 80 mg, Day 8, 3 patients
[6] = 80 mg, Intermittent Dose Schedule A, 80 mg, Day -3, 4 patients
[7] = 80 mg, Intermittent Dose Schedule B, 80 mg, Day 1, 4 patients
[8] = 80 mg, Intermittent Dose Schedule B, 80 mg, Day 8, 4 patients
[9] = 100 mg, Continuous Dosing, 100 mg, Day 1, 5 patients
[10] = 100 mg, Continuous Dosing, 100 mg, Day 15, 2 patients
[11] = 100 mg, Intermittent Dose Schedule A, 100 mg, Day -3, 4 patients

## Nc1cc(C(F)(F)F)c(-c2nc(N3CCOCC3)nc(N3CCOCC3)n2)cn1 [bimiralisib, 5-(4,6-Dimorpholino-1,3,5-triazin-2-yl)-4-(trifluoromethyl)pyridin-2-amine]
Advanced solid tumors; All Schedules, n = 70
  Best Overall Response: Complete response (CR), Number of Patients: 0 n (%)
  Best Overall Response: Missing (response could not be assessed), Number of Patients: 16 (22.9%) n (%)
  Best Overall Response: Non-CR/Non-PD, Number of Patients: 4 (5.7%) n (%)
  Best Overall Response: Partial response, Number of Patients: 1 (1.4%) n (%)
  Best Overall Response: Progressive disease (PD), Number of Patients: 19 (27.1%) n (%)
  Best Overall Response: Stable disease, Number of Patients: 30 (43%) n (%)
Advanced solid tumors; Continuous (n = 21)
  Best Overall Response: Complete response (CR), Number of Patients: 0 n (%)
  Best Overall Response: Missing (response could not be assessed), Number of Patients: 9 (42.9%) n (%)
  Best Overall Response: Non-CR/Non-PD, Number of Patients: 0 n (%)
  Best Overall Response: Partial response, Number of Patients: 0 n (%)
  Best Overall Response: Progressive disease (PD), Number of Patients: 7 (33.3%) n (%)
  Best Overall Response: Stable disease, Number of Patients: 5 (23.8%) n (%)
Advanced solid tumors; Intermittent A, n = 25
  Best Overall Response: Complete response (CR), Number of Patients: 0 n (%)
  Best Overall Response: Missing (response could not be assessed), Number of Patients: 5 (20%) n (%)
  Best Overall Response: Non-CR/Non-PD, Number of Patients: 1 (4%) n (%)
  Best Overall Response: Partial response, Number of Patients: 1 (4%) n (%)
  Best Overall Response: Progressive disease (PD), Number of Patients: 6 (24%) n (%)
  Best Overall Response: Stable disease, Number of Patients: 12 (48%) n (%)
Advanced solid tumors; Intermittent B, n = 24
  Best Overall Response: Complete response (CR), Number of Patients: 0 n (%)
  Best Overall Response: Missing (response could not be assessed), Number of Patients: 2 (8.3%) n (%)
  Best Overall Response: Non-CR/Non-PD, Number of Patients: 3 (12.5%) n (%)
  Best Overall Response: Partial response, Number of Patients: 0 n (%)
  Best Overall Response: Progressive disease (PD), Number of Patients: 6 (25%) n (%)
  Best Overall Response: Stable disease, Number of Patients: 13 (54.2%) n (%)
Advanced solid tumors; [2]
  Duration of response: 8.4 months
  Reduction in sum of target lesions per RECIST 1.1: 85%
  Time to response: 45 days
Advanced solid tumors; all 70 patients
  Patients with PR as best overall response: 1.4%
Advanced solid tumors; all patients
  Complete response (CR): No patient achieved CR
Advanced solid tumors; all patients, 30 patients
  Patients with SD: 43.0%
Advanced solid tumors; all patients, head and neck squamous cancer patient with NOTCH1T1997M mutation
  Number of partial responses: one
Advanced solid tumors; continuous dosing
  Patients with SD: 23.8%
Advanced solid tumors; head and neck squamous cancer, loss of function NOTCH1T1997M mutation, intermittent schedule A 200 mg
  Best overall response of single patient: partial response
Advanced solid tumors; intermittent schedule A
  Patients with SD: 48.0%
Advanced solid tumors; intermittent schedule B
  Patients with SD: 54.2%
[1]; all dosing schedules, 80–200 mg
  Dose proportionality of concentration-time data: not proportional to doses
[1]; continuous schedule, range < 6–146 h
  Median half-life, calculated from accumulation: 39.5 h
[1]; continuous schedule, range, <1.0–9.3
  Median accumulation ratio (cycle 1 Day 15 AUC0–8h versus Day -3 AUC0–8h): 2.9
[1]; 80 mg, Continuous Dosing, 80 mg, Day 15, 7 patients, read-out: AUC0–8 Geometric Mean (%CV)
  AUC(0-t): 4090 ng·h/mL
[1]; [3]
  Cmax: 766 ng/mL
  Tmax: 1 h
[1]; 80 mg, Continuous Dosing, 80 mg, Day -3, 11 patients, read-out: AUC0–8 Geometric Mean (%CV)
  AUC(0-t): 1530 ng·h/mL
[1]; 80 mg, Continuous Dosing, 80 mg, Day -3, 11 patients, read-out: AUC0–24 Geometric Mean (%CV)
  AUC(0-t): 4290 ng·h/mL
[1]; [4]
  Cmax: 407 ng/mL
  Tmax: 2 h
[1]; 80 mg, Intermittent Dose Schedule A, 80 mg, Day 8, 3 patients, read-out: AUC0–8 Geometric Mean (%CV)
  AUC(0-t): 2350 ng·h/mL
[1]; [5]
  Cmax: 614 ng/mL
  Tmax: 1 h
[1]; 80 mg, Intermittent Dose Schedule A, 80 mg, Day 8, n = 1, read-out: AUC0–24 Geometric Mean (%CV)
  AUC(0-t): 6740 ng·h/mL
[1]; 80 mg, Intermittent Dose Schedule A, 80 mg, Day -3, 4 patients, read-out: AUC0–8 Geometric Mean (%CV)
  AUC(0-t): 1580 ng·h/mL
[1]; 80 mg, Intermittent Dose Schedule A, 80 mg, Day -3, 4 patients, read-out: AUC0–24 Geometric Mean (%CV)
  AUC(0-t): 3540 ng·h/mL
[1]; [6]
  Cmax: 410 ng/mL
  Tmax: 1.5 h
[1]; 80 mg, Intermittent Dose Schedule B, 80 mg, Day 1, 4 patients, read-out: AUC0–8 Geometric Mean (%CV)
  AUC(0-t): 1680 ng·h/mL
[1]; 80 mg, Intermittent Dose Schedule B, 80 mg, Day 1, 4 patients, read-out: AUC0–24 Geometric Mean (%CV)
  AUC(0-t): 4000 ng·h/mL
[1]; [7]
  Cmax: 341 ng/mL
  Tmax: 3 h
[1]; 80 mg, Intermittent Dose Schedule B, 80 mg, Day 8, 4 patients, read-out: AUC0–8 Geometric Mean (%CV)
  AUC(0-t): 2600 ng·h/mL
[1]; [8]
  Cmax: 681 ng/mL
  Tmax: 1.5 h
[1]; 80 mg, Intermittent Dose Schedule B, 80 mg, Day 8, n = 3, read-out: AUC0–24 Geometric Mean (%CV)
  AUC(0-t): 6350 ng·h/mL
[1]; 100 mg, Continuous Dosing, 100 mg, Day 1, 5 patients, read-out: AUC0–8 Geometric Mean (%CV)
  AUC(0-t): 1690 ng·h/mL
[1]; 100 mg, Continuous Dosing, 100 mg, Day 1, 5 patients, read-out: AUC0–24 Geometric Mean (%CV)
  AUC(0-t): 4660 ng·h/mL
[1]; [9]
  Cmax: 441 ng/mL
  Tmax: 1.7 h
[1]; 100 mg, Continuous Dosing, 100 mg, Day 15, 2 patients, read-out: AUC0–8 Geometric Mean (%CV)
  AUC(0-t): 5750 ng·h/mL
[1]; [10]
  Cmax: 1110 ng/mL
  Tmax: 2 h
[1]; 100 mg, Intermittent Dose Schedule A, 100 mg, Day 8, 3 patients, read-out: AUC0–8 Geometric Mean (%CV)
  AUC(0-t): 3910 ng·h/mL
[1]; 100 mg, Intermittent Dose Schedule A, 100 mg, Day 8, 3 patients
  Tmax: 1 h
[1]; 100 mg, Intermittent Dose Schedule A, 100 mg, Day 8, n = 2, read-out: AUC0–24 Geometric Mean (%CV)
  AUC(0-t): 12400 ng·h/mL
[1]; 100 mg, Intermittent Dose Schedule A, 100 mg, Day -3, 4 patients, read-out: AUC0–8 Geometric Mean (%CV)
  AUC(0-t): 1970 ng·h/mL
[1]; 100 mg, Intermittent Dose Schedule A, 100 mg, Day -3, 4 patients, read-out: AUC0–24 Geometric Mean (%CV)
  AUC(0-t): 4170 ng·h/mL
[1]; [11]
  Cmax: 543 ng/mL
  Tmax: 1 h
[1]; 100 mg, Intermittent Dose Schedule B, 100 mg, Day 1, 7 patients, read-out: AUC0–8 Geometric Mean (%CV)
  AUC(0-t): 1920 ng·h/mL
[1]; 100 mg, Intermittent Dose Schedule B, 100 mg, Day 1, 7 patients, read-out: AUC0–24 Geometric Mean (%CV)
  AUC(0-t): 4520 ng·h/mL

— article PMC10969742, “A Phase I Study of the Oral Dual-Acting Pan-PI3K/mTOR Inhibitor Bimiralisib in Patients with Advanced Solid Tumors” (Cancers, 2024)
